ChEMBL document CHEMBL1126232, “3-oxagranatane (3-oxa-9-azabicyclo[3.3.1]nonane) derivatives as highly potent serotonin 5-Ht3 receptor antagonists” (Bioorg Med Chem Lett, 1992)

Tested on: not listed separately
Assay: pKa value was determined
Format: physicochemical
Settings: not given

Compound	pKa
CN1C2CCC1CC(NC(=O)N1CC(C)(C)c3ccccc31)C2 (stereo not drawn)	9.4
CN1C2COCC1CC(NC(=O)N1CC(C)(C)c3ccccc31)C2 (stereo not drawn)	7.1
CN1C2CCCC1CC(NC(=O)c1nn(C)c3ccccc13)C2 (stereo not drawn) [GRANISETRON]	9.1

Species on record: Rattus norvegicus
Assay: animal or person
Format: functional
Settings: iv, read-out: ID50 (the source's name)
Description: Antagonistic activity towards serotonin 5-HT3 receptor was evaluated by inhibition of 5-HT evoked reflexes in rat on intravenous administration

Compound	ED50
COc1cc(N)c(Cl)cc1C(=O)NC1CC2CCCC(C1)N2C (stereo not drawn)	0.4 µg/kg
CN1C2CCC1CC(NC(=O)N1CC(C)(C)c3ccccc31)C2 (stereo not drawn)	0.7 µg/kg
COc1cc(N)c(Cl)cc1C(=O)NC1CC2CCC(C1)N2C (stereo not drawn)	0.8 µg/kg
COc1ccccc1NC(=O)NC1CC2CCC(C1)N2C (stereo not drawn)	2.5 µg/kg
COc1cc(N)c(Cl)cc1C(=O)NC1CC2COCC(C1)N2C (stereo not drawn)	0.09 µg/kg
COc1ccccc1NC(=O)NC1CC2COCC(C1)N2C (stereo not drawn)	1.1 µg/kg
CN1C2CCC1CC(NC(=O)N1CCc3ccccc31)C2 (stereo not drawn)	1.4 µg/kg
CN1C2COCC1CC(NC(=O)N1CC(C)(C)c3ccccc31)C2 (stereo not drawn)	0.13 µg/kg
COc1ccccc1NC(=O)NC1CC2CCCC(C1)N2C (stereo not drawn)	7.5 µg/kg
CN1C2COCC1CC(NC(=O)c1nn(C)c3ccccc13)C2 (stereo not drawn)	0.16 µg/kg
